Measurements reported in paper PMC5548745, “Agonist-induced dimer dissociation as a macromolecular step in G protein-coupled receptor signaling” (Nature Communications, 2017).

B2: Frizzled 6 (FZD6), wild type, expressed as V5-FZD6-mCherry and as FZD6-GFP (receptor, human, UniProt O60353 19-706, looked up)
chain: HSLFTCEPITVPRCMKMAYNMTFFPNLMGHYDQSIAAVEMEHFLPLANLECSPNIETFLCKAFVPTCIEQIHVVPPCRKLCEKVYSDCKKLIDTFGIRWPEELECDRLQYCDETVPVTFDPHTEFLGPQKKTEQVQRDIGFWCPRHLKTSGGQGYKFLGIDQCAPPCPNMYFKSDELEFAKSFIGTVSIFCLCATLFTFLTFLIDVRRFRYPERPIIYYSVCYSIVSLMYFIGFLLGDSTACNKADEKLELGDTVVLGSQNKACTVLFMLLYFFTMAGTVWWVILTITWFLAAGRKWSCEAIEQKAVWFHAVAWGTPGFLTVMLLAMNKVEGDNISGVCFVGLYDLDASRYFVLLPLCLCVFVGLSLLLAGIISLNHVRQVIQHDGRNQEKLKKFMIRIGVFSGLYLVPLVTLLGCYVYEQVNRITWEITWVSDHCRQYHIPCPYQAKAKARPELALFMIKYLMTLIVGISAVFWVGSKKTCTEWAGFFKRNRKRDPISESRRVLQESCEFFLKHNSKVKHKKKHYKPSSHKLKVISKSMGTSTGATANHGTSAVAITSHDYLGQETLTEIQTSPETSMREVKADGASTPRLREQDCGEPASPAASISRLSGEQVDGKGQAGSVSESARSEGRISPKSDITDTGLAQSNNLQVPSSSEPSSLKGSTSLLVHPVSGVRKEQGGGCHSDT
notes: Frizzled 6 (FZD6), human, Uniprot ID O60353; Two differently tagged copies of the same receptor are tested against each other, so they are written as one molecule; The FCS experiment used FZD6-GFP alone; also called FZD6 wt; source: HEK293, transiently transfected (Lipofectamine 2000), in living cells; not shown: V5 (on the crosslinked copy), N-terminal, kept; mCherry (on the crosslinked copy), …

Legend:
[1] = tested on: ERK1/2 phosphorylation in MLE-12 cells; assay: basal P-ERK1/2 immunoblot, MLE-12 cells expressing minigenes; assay type: cell-based, mouse; settings: transient transfection of minigene
Protocol: (§1) MLE-12 or HEK293 cells (ATCC) were plated in a 24- or 48-well plate at a density of 100,000 or 50,000 cells/well, respectively. After 24 h, cells were transfected using Lipofectamine 2000 according to the manufacturer’s instructions. Cells were stimulated (24 h post-transfection) with 300 ng ml^−1 recombinant carrier-free WNT-5A (CF WNT-5A; R&D Systems). Stimulation was stopped by the addition of lysis buffer (1% NP-40, 150 mM NaCl, 50 mM Tris/HCl pH 8). Lysates were sonicated and analyzed by 7.5 or 10% Mini-PROTEAN TGX precast polyacrylamide gels (Bio-Rad) and transferred to PVDF membranes using the Trans-Blot Turbo system (Bio-Rad). […] Proteins were detected with horseradish peroxidase-conjugated secondary antibodies (goat anti-rabbit and goat anti-mouse (Pierce)) and Clarity Western ECL Blotting Substrate (Bio-Rad). […]
(§2) Quantification of P-ERK1/2 is normalized to β-actin as loading control. […] P-ERK1/2, HA-TM1/5 and β-actin as loading control were assessed by PAGE/immunoblotting. […]

[2] = tested on: lysophosphatidic acid receptor (endogenous); assay: lysophosphatidic acid-induced P-ERK1/2 in HEK293 cells with minigenes; assay type: cell-based; settings: lysophosphatidic acid 10 µM, 10 min
Protocol: as §1, with “Cells were stimulated (24 h post-transfection) with 300 ng ml^−1 recombinant carrier-free WNT-5A (CF WNT-5A; R&D Systems).” left out
as §2

[3] = tested on: HEK293 and MLE-12 cell membrane; assay: immunocytochemistry of HA-tagged minigenes without permeabilization; assay type: cell-based; settings: 4% paraformaldehyde, no permeabilization
Text: Supplementary Figure 7: Control experiments for assaying receptor dimerization by dcFRAP and expression of minigenes. (a) HEK293 and MLE-12 cells were transfected with HA-tagged TM1/5 minigenes, fixed in 4% paraformaldehyde and stained with an anti-HA antibody/Cy2-conjugated secondary antibody in the absence of cell permeabilization by detergents. […]
confirms both the membrane expression of the minigenes as well as the correct orientation of the peptides with the N-terminal signal sequence/HA tag on the extracellular side accessible to the primary antibody. Images were taken with a 40x objective using the 488 nm laser line on a Zeiss LSM 710 confocal microscope. Size bars – 10 µm. (b) Bar graph compares the immobile fraction in dcFRAP experiments of FZD6-GFP after CL of V5-FZD6-mCherry in cells expressing minigenes corresponding to either TM1 (control) or TM5 (competing at the dimer interface). P= […]
Error bars give s.e.m.; * P<0.05 (two-tailed t-test). (c) Transient transfection of TM5, […]
abrogation of dimer formation, in the presence of TM5, reduces receptor-mediated signaling. (d) Bar graph summarizes four independent immunoblotting experiments. P-ERK1/2 in TM1 expressing MLE-12 cells were normalized to 100%. […]
as §2

[4] = tested on: protease-activated receptor (endogenous); assay: thrombin-induced P-ERK1/2 in HEK293 cells with minigenes; assay type: cell-based; settings: thrombin 10 U/ml, 10 min
[5] = tested on: FZD6–FZD6 dimer; assay: dcFRAP of V5-FZD6-mCherry/FZD6-GFP (FZD6 dimerization); assay type: cell-based, human; settings: HEK293; co-transfection of V5-FZD6-mCherry, FZD6-GFP and minigene; N=43 TM1, N=66 TM5
Protocol: For dual color FRAP experiments, cells grown in four compartment 35 mm glass bottom dishes were washed three times with BE buffer[19] (150 mM NaCl, 2.5 mM KCl, 10 mM HEPES, 12 mM glucose, 0.5 mM CaCl2, and 0.5 mM MgCl2). Then, the cells were incubated at RT for 30 min with biotin-conjugated goat polyclonal anti-V5 antibody (Bethyl) diluted 1:100 in BE buffer supplemented with 2.5% bovine serum albumin. For antibody-mediated cross-linking, avidin was added and incubated for 15 min and washed two times with BE buffer before the experiments were performed. In Fig. 4, dcFRAP experiments are presented that employ chemical surface crosslinking to visualize assembly of FZD6 with DVL or heterotrimeric G proteins according to previously published protocols. Live cell imaging experiments were carried out using a Zeiss 710 laser scanning microscope. Images were acquired using a 40×, 1.2 NA C-Apochromat objective and the 488 nm and the 561 nm laser lines were used to excite GFP and mCherry fluorophores, respectively. Photobleaching was performed by 100% laser illumination of a 1.80 × 1.80 µm area placed over the cell plasma membrane. Fluorescence was measured pre- and post-bleach using low-intensity illumination for a total time period of 100 s. Average pixel intensity was measured using the ZEN2013 software, corrected for background fluctuations and bleaching artifacts and normalized to pre-bleached intensity. The recovered mobile fraction (F m) was calculated as follows: F m = (I P–I 0)/(I I–I 0), where I I is the initial intensity measured prior to bleaching, I 0 is the immediate fluorescence intensity post-bleaching and I P is intensity value post-bleaching. The mobile fraction was defined by the average of the fluorescence recovery assessed between time 85–101 s (including pre-bleach measurements). We excluded experiments in which the extracellularly tagged receptors were not sufficiently immobilized after the crosslinking procedure (cutoff at 40% crosslinking-induced reduction in mobile fraction). Kinetic determination of mobile fractions of crosslinked V5-FZD6-mCherry and FZD6-GFP with WNT stimulation over time were performed in one cell culture well. Measurements for each time point were performed on separate cells.
Statistical and graphical analysis was performed using Graph Pad Prism 5 software. Data were analyzed by two-tailed t-test or one-way ANOVA with Fisher’s least significant difference post hoc analysis. Curve fitting of FRAP data was done with a two-phase association nonlinear function using the least square fit. Data for receptor titration in the presence of C59 and output to P-ERK1/2 in Fig. 6h was fit to a linear regression model. All experiments were repeated at least three times in independent experiments (not representing technical replicates). For single cell analysis (dcFRAP), the number of the individual ROIs obtained from several cells in at least three independent experiments is provided in the figure legends. Data from individual ROIs are summarized for data presentation providing the sum of independent observations. Significance levels are given as: *P < 0.05; **P < 0.01; ***P < 0.001. Data in FRAP curves and bar graphs (FRAP) are presented as mean ± s.e.m.

[6] = target: B2; assay: cell-based or functional assay
[7] = target: T1, FZD6 TM4 synthetic peptide (human); assay: SEC; Superdex 30 analytical column, triple distilled water + 0.01% DDM, room temperature; 500 µM of each peptide, incubated together for 2 h; settings: both partners purified
T1 construct: flanking lysines added to the transmembrane stretch; transmembrane helix 4 of human FZD6, Uniprot ID O60353; Whole peptide as printed: [residues removed]; source: synthetic peptide (Pepscan Therapeutics or Fmoc synthesis, HPLC purified)
T1 peptide: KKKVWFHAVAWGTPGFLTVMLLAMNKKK

[8] = target: the molecule itself; assay: fluorescence cross-correlation spectroscopy (FCCS); living HEK293 cells co-expressing FZD6-GFP and V5-FZD6-mCherry at low levels (10-1000 receptors per µm^2), no crosslinking; dynamic measurements before and after WNT-5A (300 ng ml^-1)

“KKKSFIGTVSIFCLCATLFTFLTFLIKKK [TM1 minigene]” was tested, and the “effect on basal P-ERK1/2” value [1] was “did not affect basal ERK1/2 levels”, the “effect on lysophosphatidic acid-induced P-ERK1/2” value [2] was “did not observe any difference in P-ERK1/2 induction” and the “membrane expression and orientation (anti-HA staining)” value [3] was “Positive anti-HA staining in the cell membrane”. For the same molecule, the “effect on thrombin-induced P-ERK1/2” value [4] was “did not observe any difference in P-ERK1/2 induction”.

For “KKLDASRYFVLLPLCLCVFVGLSLLLAGIISKKK [TM5 minigene]”, the “effect of minigene on FZD6 dimer formation” value [5] was “perturbed dimer formation”, the “effect on basal P-ERK1/2” value [1] was “reduced basal P-ERK1/2” and the “effect on lysophosphatidic acid-induced P-ERK1/2” value [2] was “did not observe any difference in P-ERK1/2 induction”. For the same molecule, the “membrane expression and orientation (anti-HA staining)” value [3] was “Positive anti-HA staining in the cell membrane” and the “effect on thrombin-induced P-ERK1/2” value [4] was “did not observe any difference in P-ERK1/2 induction”.

With KKLDASRYFVLLPLCLCVFVGLSLLLAGIISKKK [HA-tagged TM5 minigene of FZD6] the “basal P-ERK1/2 level (immunoblot) in MLE-12 cells expressing the TM5 minigene, which interferes with the FZD6-FZD6 dimer; the TM1 minigene had no effect” value [6] was 56.7%.

B1: FZD6 TM5 synthetic peptide (peptide)
peptide: KKLDASRYFVLLPLCLCVFVGLSLLLAGIISKKK
notes: flanking lysines added to the transmembrane stretch; transmembrane helix 5 of human FZD6, Uniprot ID O60353; source: synthetic peptide (Pepscan Therapeutics or Fmoc synthesis, HPLC purified)
B1: binds [7].

In the case of B2, the “stoichiometry N” value [8] is reported as 2.
